“And” between values parts separate entries of the source, which are not always exact repeats. Identical values can stand only once.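 Following 48 hours of exposure in 96-well plates, responses at five concentrations were used to interpolate endpoints linearly. Abbreviation: GI50, concentration required for 50% inhibition of growth. TGI: total growth inhibition.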
What was measured:
Experiment in all cases: inhibition of tumour cell growth, NCI panel, 48 h
HCC-2998 colon = tested on: HCC-2998 colon
HS 578T breast = tested on: HS 578T breast
LOX IMVI melanoma = tested on: LOX IMVI melanoma
MCF7 breast = tested on: MCF7 breast
BT-549 breast = tested on: BT-549 breast
M14 melanoma = tested on: M14 melanoma
CCRF-CEM leukemia = tested on: CCRF-CEM leukemia
OVCAR-8 ovarian = tested on: OVCAR-8 ovarian
MDA-MB-435 = tested on: MDA-MB-435
786-0 renal = tested on: 786-0 renal
CAKI-1 renal = tested on: CAKI-1 renal
SW-620 colon = tested on: SW-620 colon
OVCAR-5 ovarian = tested on: OVCAR-5 ovarian
SF-295 CNS = tested on: SF-295 CNS
HOP-62 NSCLC = tested on: HOP-62 NSCLC
SK-MEL-2 melanoma = tested on: SK-MEL-2 melanoma
MDA-MB-231 breast = tested on: MDA-MB-231 breast
SK-MEL-28 melanoma = tested on: SK-MEL-28 melanoma
SR leukemia = tested on: SR leukemia
HT29 colon = tested on: HT29 colon
A549 NSCLC = tested on: A549 NSCLC
RPMI-8226 leukemia = tested on: RPMI-8226 leukemia
SK-MEL-5 melanoma = tested on: SK-MEL-5 melanoma
TK-10 renal = tested on: TK-10 renal
NCI-H23 lung = tested on: NCI-H23 lung
RXF 393 renal = tested on: RXF 393 renal
IGROV1 ovarian = tested on: IGROV1 ovarian
A498 renal = tested on: A498 renal
OVCAR-4 ovarian = tested on: OVCAR-4 ovarian
HOP-92 NSCLC = tested on: HOP-92 NSCLC
KM12 colon = tested on: KM12 colon
MALME-3M melanoma = tested on: MALME-3M melanoma
NCI-H226 lung = tested on: NCI-H226 lung
HCT-116 colon = tested on: HCT-116 colon
U251 CNS = tested on: U251 CNS
SK-OV-3 ovarian = tested on: SK-OV-3 ovarian
DU-145 prostate = tested on: DU-145 prostate
SNB-19 CNS = tested on: SNB-19 CNS
SNB-75 CNS = tested on: SNB-75 CNS
NCI-H522 lung = tested on: NCI-H522 lung
SF-268 CNS = tested on: SF-268 CNS
COLO 205 colon = tested on: COLO 205 colon
EKVX NSCLC = tested on: EKVX NSCLC
SF-539 CNS = tested on: SF-539 CNS
K-562 leukemia = tested on: K-562 leukemia
UO-31 renal = tested on: UO-31 renal
UACC-62 melanoma = tested on: UACC-62 melanoma
HL-60(TB) leukemia = tested on: HL-60(TB) leukemia
ACHN renal = tested on: ACHN renal
MOLT-4 leukemia = tested on: MOLT-4 leukemia
HCT-15 colon = tested on: HCT-15 colon
NCI/ADR-RES ovarian = tested on: NCI/ADR-RES ovarian
UACC-257 melanoma = tested on: UACC-257 melanoma
SN12C renal = tested on: SN12C renal
NCI-H460 lung = tested on: NCI-H460 lung
T-47D breast = tested on: T-47D breast
OVCAR-3 ovarian = tested on: OVCAR-3 ovarian
PC-3 prostate = tested on: PC-3 prostate

## O=C(COc1cccc(/C=C2\Oc3ccc4ccccc4c3C2=O)c1)c1ccc([N+](=O)[O-])cc1
HCC-2998 colon
  GI50: 15.7 µM
  TGI: > 100 µM
HS 578T breast
  GI50: 18.2 µM
  TGI: 56.1 µM
LOX IMVI melanoma
  GI50: 7.5 µM
  TGI: 20.5 µM
MCF7 breast
  GI50: 11.1 µM
  TGI: 28.6 µM
BT-549 breast
  GI50: 17.3 µM
  TGI: 37.6 µM
M14 melanoma
  GI50: 18.3 µM
  TGI: 53.4 µM
CCRF-CEM leukemia
  GI50: 3.96 µM
  TGI: 17.4 µM
OVCAR-8 ovarian
  GI50: 14.2 µM
  TGI: 37.2 µM
MDA-MB-435
  GI50: 28.9 µM
  TGI: > 100 µM
786-0 renal
  GI50: 23.6 µM
  TGI: 62.3 µM
CAKI-1 renal
  GI50: 45.9 µM
  TGI: > 100 µM
SW-620 colon
  GI50: 14 µM
  TGI: 27 µM
OVCAR-5 ovarian
  GI50: 27.3 µM
  TGI: > 100 µM
SF-295 CNS
  GI50: 57.4 µM
  TGI: > 100 µM
HOP-62 NSCLC
  GI50: 38.5 µM
  TGI: > 100 µM
SK-MEL-2 melanoma
  GI50: > 100 µM
  TGI: > 100 µM
MDA-MB-231 breast
  GI50: 18.8 µM
  TGI: 68.8 µM
SK-MEL-28 melanoma
  GI50: 48.4 µM
  TGI: > 100 µM
SR leukemia
  GI50: 0.305 µM
  TGI: > 100 µM
HT29 colon
  GI50: 36 µM
  TGI: > 100 µM
A549 NSCLC
  GI50: > 100 µM
  TGI: > 100 µM
RPMI-8226 leukemia
  GI50: 1.12 µM
  TGI: 13.3 µM
SK-MEL-5 melanoma
  GI50: 13 µM
  TGI: 34.8 µM
TK-10 renal
  GI50: 37.3 µM
  TGI: > 100 µM
NCI-H23 lung
  GI50: 21 µM
  TGI: 80.8 µM
RXF 393 renal
  GI50: 10.6 µM
  TGI: 25.2 µM
IGROV1 ovarian
  GI50: 6.76 µM
  TGI: 40.7 µM
A498 renal
  GI50: > 100 µM
  TGI: > 100 µM
OVCAR-4 ovarian
  GI50: 20 µM
  TGI: 60.3 µM
HOP-92 NSCLC
  GI50: 12.9 µM
  TGI: 35.9 µM
KM12 colon
  GI50: 11.9 µM
  TGI: 26.2 µM
MALME-3M melanoma
  GI50: 14.7 µM
  TGI: 43 µM
NCI-H226 lung
  GI50: 16.1 µM
  TGI: 37.8 µM
HCT-116 colon
  GI50: 16.5 µM
  TGI: 40.9 µM
U251 CNS
  GI50: 14.7 µM
  TGI: 27.8 µM
SK-OV-3 ovarian
  GI50: 64.2 µM
  TGI: > 100 µM
DU-145 prostate
  GI50: 12.1 µM
  TGI: 29.3 µM
SNB-19 CNS
  GI50: 34.1 µM
  TGI: > 100 µM
SNB-75 CNS
  GI50: 18.9 µM
  TGI: 53 µM
NCI-H522 lung
  GI50: 11.2 µM
  TGI: 29.3 µM
SF-268 CNS
  GI50: 13.3 µM
  TGI: 27.2 µM
COLO 205 colon
  GI50: 21.8 µM
  TGI: > 100 µM
EKVX NSCLC
  GI50: > 100 µM
  TGI: > 100 µM
SF-539 CNS
  GI50: 14 µM
  TGI: 32.1 µM
K-562 leukemia
  GI50: 12.4 µM
  TGI: 39.4 µM
UO-31 renal
  GI50: 36.7 µM
  TGI: > 100 µM
UACC-62 melanoma
  GI50: 14.1 µM
  TGI: 30.4 µM
HL-60(TB) leukemia
  GI50: 62.7 µM
  TGI: > 100 µM
ACHN renal
  GI50: 60.2 µM
  TGI: > 100 µM
MOLT-4 leukemia
  GI50: 13.3 µM
  TGI: 38.6 µM
HCT-15 colon
  GI50: 12.3 µM
  TGI: 30.9 µM
NCI/ADR-RES ovarian
  GI50: > 100 µM
  TGI: > 100 µM
UACC-257 melanoma
  GI50: > 100 µM
  TGI: > 100 µM
SN12C renal
  GI50: 13.9 µM
  TGI: 32.5 µM
NCI-H460 lung
  GI50: 37 µM
  TGI: > 100 µM
T-47D breast
  GI50: 12.6 µM
  TGI: 38.3 µM
OVCAR-3 ovarian
  GI50: 14.9 µM
  TGI: 28 µM

## CN1/C(=C/C=C/c2n(Cc3ccc4ccccc4c3)c(Cl)c(Cl)[n+]2Cc2ccc3ccccc3c2)Oc2ccccc21
MDA-MB-435
  GI50: 0.327 µM
  TGI: 1.09 µM
CAKI-1 renal
  GI50: 0.553 µM
  TGI: 1.83 µM
SW-620 colon
  GI50: 0.294 µM
  TGI: 1.15 µM
OVCAR-5 ovarian
  GI50: 0.373 µM
  TGI: 1.59 µM
SK-MEL-28 melanoma
  GI50: 0.505 µM
  TGI: 1.75 µM
A498 renal
  GI50: 0.198 µM
  TGI: 0.756 µM
HOP-92 NSCLC
  GI50: 0.212 µM
  TGI: 0.685 µM
MALME-3M melanoma
  GI50: 0.201 µM
  TGI: 0.625 µM
HCT-116 colon
  GI50: 0.255 µM
  TGI: 1.08 µM
DU-145 prostate
  GI50: 0.403 µM
  TGI: 1.54 µM
SNB-75 CNS
  GI50: 0.176 µM
  TGI: 0.731 µM
UO-31 renal
  GI50: 1.35 µM
  TGI: 2.65 µM
ACHN renal
  GI50: 0.494 µM
  TGI: 1.67 µM
HCT-15 colon
  GI50: 1.24 µM
  TGI: 2.68 µM
UACC-257 melanoma
  GI50: 0.338 µM
  TGI: 1.44 µM

## COc1cccc(/C=C/C(=O)N2CC(CCl)c3c2cc(N)c2ccccc32)c1 (stereo not drawn)
HCC-2998 colon
  TGI: 0.0166 µM
HS 578T breast
  TGI: 0.0409 µM
LOX IMVI melanoma
  TGI: 0.0065 µM
MCF7 breast
  TGI: 0.00568 µM
BT-549 breast
  GI50: 0.0142 µM
M14 melanoma
  TGI: 0.105 µM
SW-620 colon
  TGI: > 100 µM
OVCAR-5 ovarian
  TGI: 1.5 µM
SF-295 CNS
  TGI: 0.00953 µM
SK-MEL-2 melanoma
  TGI: 0.0224 µM
HT29 colon
  TGI: 20 µM
RPMI-8226 leukemia
  TGI: > 100 µM
NCI-H23 lung
  TGI: 0.0124 µM
RXF 393 renal
  TGI: 0.00342 µM
A498 renal
  TGI: 0.0342 µM
OVCAR-4 ovarian
  TGI: 0.141 µM
KM12 colon
  TGI: 0.0352 µM and 0.161 µM
NCI-H226 lung
  TGI: 0.0425 µM
HCT-116 colon
  TGI: 1.27 µM
U251 CNS
  TGI: 0.37 µM
SK-OV-3 ovarian
  TGI: 1.16 µM
SNB-19 CNS
  TGI: > 100 µM
SNB-75 CNS
  TGI: 0.0153 µM
NCI-H522 lung
  TGI: 0.00889 µM
EKVX NSCLC
  TGI: 0.145 µM and 0.0415 µM
K-562 leukemia
  TGI: > 100 µM
UO-31 renal
  TGI: > 100 µM
UACC-62 melanoma
  TGI: 0.0224 µM
PC-3 prostate
  TGI: 0.0562 µM and 0.132 µM
ACHN renal
  TGI: 0.0024 µM
HCT-15 colon
  TGI: 0.224 µM
NCI-H460 lung
  TGI: 0.00325 µM
T-47D breast
  TGI: 3.59 µM
OVCAR-3 ovarian
  TGI: 1.72 µM

From PubChem BioAssay (NCI)
